Reference: US11589603B2, “Powdered nutritional product containing branched-chain amino acids and a sugar alcohol” (Abbott Laboratories, priority 2015, dated 2023)
Values joined by “and” are separate entries in the source; they are usually repeats but may differ in a detail not shown here. Identical values can stand only once.

Assays:
[1] = Example 5: effect of inositol isomers on dissolution of L-leucine, LC/UV of filtrate; format: physicochemical; settings: for enhancement of dissolution rate of L-leucine by inositol isomer: 0.1 g isomer, 3.50 g L-leucine; for Leu dissolved at 30 seconds (g/16 oz.) / Leu dissolved at 60 seconds (% of total Leu) / Leu dissolved at 60 seconds (g/16 oz.): 3.50 g L-leucine with 0.1 g/16 oz. inositol isomer, water 21° C., 400 rpm
Description: The LC/UV system used to perform the tests comprised the following: 1) Column: YMC ODS-AQ, 4.6 x 250 mm, 5 μm, Waters […]; 2) Mobile Phase: Milli-Q Plus water; 3) Flow Rate: 0.4 mL/minute; 4) Temperature: 40° C.; 5) Detection: UV at 192 nm; 6) Injection: 2 μL of filtrate; and 7) Run Time: 20 minutes.

[2] = Example 4: aqueous dissolution of branched-chain amino acids in a powdered nutritional product with varying myo-inositol, LC/UV of filtrate; format: physicochemical; settings: powdered nutritional product; particularly evident at 30 seconds across all concentrations
Description: The LC/UV system used to perform the tests comprised the following: 1) Column: YMC ODS-AQ, 4.6 x 250 mm, 5 μm, Waters P/N AQ12S052546WT; 2) Mobile Phase: Milli-Q Plus water; 3) Flow Rate: 0.4 mL/minute; 4) Temperature: 40° C.; 5) Detection: UV at 192 nm; 6) Injection: 2 μL of filtrate; and 7) Run Time: 20 minutes.
Example 4 evaluates the effect that myo-inositol concentration has on the aqueous dissolution of branched-chain amino acids (valine, isoleucine, and leucine) in a powdered nutritional product. One serving (17.6 grams) of the powdered nutritional product contains 7.00 grams of a branched-chain amino acid blend comprising 50 wt. % leucine, 25 wt. % isoleucine, and 25 wt. % valine. A serving of the powdered nutritional product with a specified amount of myo-inositol was added to 16 fluid ounces of Milli-Q Plus water at 21° C. and stirred at 400 rpm. At each specified time point, an aliquot was obtained and filtered through a 0.45 μm PTFE membrane (Pall Life Sciences, Acrodisc CR 25, P/N 4501), and the filtrate was tested for valine, isoleucine, and leucine using the LC/UV method as described in Example 3.

SMILES	enhancement of dissolution rate of L-leucine by inositol isomer [1]	Leu dissolved at 30 seconds (g/16 oz.) [1]	Leu dissolved at 60 seconds (% of total Leu) [1]	Leu dissolved at 60 seconds (g/16 oz.) [1]	effect of addition of myo-inositol on rate of dissolution of the branched-chain amino acids [2]
OC1C(O)C(O)C(O)C(O)C1O (stereo not shown) [allo-inositol]	most enhanced	0.792 g/16 oz.	40.4 % of total Leu	1.41 g/16 oz.	–
OC1C(O)C(O)C(O)C(O)C1O (stereo not drawn) [epi-inositol]	most enhanced	0.626 ± 0.223 g/16 oz.	33.2 ± 10.6 % of total Leu	1.16 ± 0.37 g/16 oz.	–
OC1C(O)C(O)C(O)C(O)C1O [L-chiro-inositol]	–	0.472 g/16 oz.	24.2 % of total Leu	0.848 g/16 oz.	–
O[C@H]1[C@H](O)[C@@H](O)[C@H](O)[C@@H](O)[C@@H]1O [scyllo-inositol]	–	0.450 g/16 oz.	24.0 % of total Leu	0.841 g/16 oz.	–
O[C@H]1[C@H](O)[C@@H](O)[C@H](O)[C@@H](O)[C@H]1O [myo-inositol]	–	0.465 g/16 oz. and 0.495 g/16 oz.	23.9 % of total Leu and 22.3 % of total Leu	0.838 g/16 oz. and 0.781 g/16 oz.	enhanced the rate of dissolution

More lines, now with the values ahead:

enhancement of dissolution rate of L-leucine by inositol isomer [1]	Leu dissolved at 30 seconds (g/16 oz.) [1]	Leu dissolved at 60 seconds (% of total Leu) [1]	Leu dissolved at 60 seconds (g/16 oz.) [1]	effect of addition of myo-inositol on rate of dissolution of the branched-chain amino acids [2]	SMILES
most enhanced	0.649 g/16 oz.	36.3 % of total Leu	1.27 g/16 oz.	–	OC1C(O)C(O)C(O)C(O)C1O (stereo not drawn) [cis-inositol]
–	0.379 g/16 oz.	21.5 % of total Leu	0.751 g/16 oz.	–	OC1C(O)C(O)C(O)C(O)C1O (stereo not shown) [muco-inositol]
